pIC50: −log10 of the molar value.
Molecular target: human MRGPRD (Homo sapiens, UniProt Q8TDS7)
Assay: MRGPRD antagonist activity, IP-One HTRF assay in CHO cells stably expressing human MRGPRD (versus 100 μM β-Alanine agonist)
Type: cell-based
Description: Chinese Hamster Ovary (CHO) cells stably expressing human MRGPRD (Eurofins, San Diego CA) were plated in a 384-well plate at 20,000 cells per well in 12 μL of Optimem (Fisher Scientific 11-058-021). Plates were kept in the incubator at 37° C. overnight. Antagonists were solubilized at a concentration of 10 mM in DMSO, and the agonists were solubilized to stock concentrations of either 50 mM in H2O (β-Alanine) or 10 mM in DMSO (all others) and then diluted in assay buffer (final concentrations of 5.7 mM Tris-HCl, 43 mM NaCl, 50 mM LiCl, pH=8). The concentration of DMSO was normalized across the plate. Antagonists were added to the plate using a Tecan D300 Digital Dispenser at nanoliter/picoliter volumes and 2 μL of agonists in assay buffer were added to each well for a final assay volume of 14 μL. Plates were covered and incubated for 1 h at 37° C. and then for 1 h at room temperature. IP-1 standards and HTRF detection reagents were added according to an IP-One—Gq Kit purchased from Cisbio (part number 621PAPEJ) and incubated in the dark for 1 h at room temperature. Assay plates were read on either a Molecular Devices SpectraMax iD5 plate reader or a BMG ClarioStar plate reader. The HTRF ratio was calculated form the raw data and graphed using GraphPad Prism to calculate IC50 values. Data are expressed as average IC50 values and average percent antagonism calculated as a percent of the maximum efficacy response. For these studies, the variability of the data was assessed by determining the standard error of mean (SEM).
The activity ranges are denoted as follows: “+++++” denotes antagonist activity<100 nM; “++++” denotes antagonist activity between 100 and 500 nM; “+++” denotes activity between 500 and 1000 nM; “++” denotes activity between 1000 and 3000 nM; and “+” denotes activity>3000 nM.

Chain of human MRGPRD (Q8TDS7 whole entry): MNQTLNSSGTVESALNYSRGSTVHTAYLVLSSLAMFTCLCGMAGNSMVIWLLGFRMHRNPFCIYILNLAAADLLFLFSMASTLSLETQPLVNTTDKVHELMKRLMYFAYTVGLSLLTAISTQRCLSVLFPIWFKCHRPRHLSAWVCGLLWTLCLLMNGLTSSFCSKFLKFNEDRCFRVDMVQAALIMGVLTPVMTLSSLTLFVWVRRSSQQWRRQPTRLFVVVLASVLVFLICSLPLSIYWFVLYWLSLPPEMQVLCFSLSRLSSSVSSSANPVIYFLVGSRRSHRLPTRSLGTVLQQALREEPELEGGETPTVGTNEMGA

pIC50 | Compound
< 5.52 | Cc1nnc(-c2ccc(-n3nnc(C(=O)Nc4ccncc4)c3C3CC3)cc2)o1 [Compound 7-1]
< 5.52 | CN(C)C(=O)c1ccccc1-c1ccc(-n2nnc(C(=O)Nc3ccncc3)c2C2CC2)cc1 [Compound 7-2]
< 5.52 | O=C(Nc1ccncc1)c1nnn(-c2ccc(-c3ncc[nH]3)cc2)c1C1CC1 [Compound 7-3]
< 5.52 | N#CCc1ccc(-n2nnc(C(=O)Nc3ccncc3)c2C2CC2)cc1 [Compound 7-4]
< 5.52 | Nc1cc(-c2ccc(-n3nnc(C(=O)Nc4ccncc4)c3C3CC3)cc2)n[nH]1 [Compound 7-5]
< 5.52 | Cc1ccc(CNC(=O)c2nnn(-c3cccc(-c4ccc(C#N)cc4)c3)c2C2CC2)cn1 [Compound 7-7]
< 5.52 | CC(=O)c1ccccc1-c1cccc(-n2nnc(C(=O)Nc3ccncc3)c2C2CC2)c1 [Compound 7-8]
< 5.52 | N#Cc1ccc(-c2cccc(-n3nnc(C(=O)NC4(c5cccnc5)CC4)c3C3CC3)c2)cc1 [Compound 7-9]
< 5.52 | O=C(NC1(c2cccnc2)CC1)c1nnn(-c2cccc(-c3cnn(C4CCC4)c3)c2)c1C1CC1 [Compound 7-10]
> 7.00 | Cc1nn(-c2ccccc2)c(C)c1-c1ccc(-n2nnc(C(=O)Nc3ccncc3)c2C2CC2)cc1 [Compound 7-11]
> 7.00 | Cc1cc(NC(=O)c2nnn(-c3ccc(-c4c(C)nn(C)c4C)cc3)c2C2CC2)ccn1 [Compound 7-12, 5-cyclopropyl-N-(2-methylpyridin-4-yl)-1-(4-(1,3,5-trimethyl-1H-pyrazol-4-yl)phenyl)-1H-1,2,3-triazole-4-carboxamide]
> 7.00 | Cc1cc(NC(=O)c2nnn(-c3ccc(-c4c(C)nn(C)c4F)cc3)c2C2CC2)ccn1 [Compound 7-13]
> 7.00 | CCn1nc(C)c(-c2ccc(-n3nnc(C(=O)Nc4ccncc4)c3C3CC3)cc2)c1C [Compound 7-14]
> 7.00 | Cc1cc(C#N)ccc1-c1ccc(-n2nnc(C(=O)Nc3ccncc3)c2C2CC2)cc1 [Compound 7-15]
> 7.00 | Cc1nn(C)c(F)c1-c1ccc(-n2nnc(C(=O)Nc3ccncc3)c2C2CC2)cc1 [Compound 7-16]
> 7.00 | Cc1nn(CC(F)(F)F)c(C)c1-c1ccc(-n2nnc(C(=O)Nc3ccncc3)c2C2CC2)cc1 [Compound 7-17]
> 7.00 | Cc1nn2ccccc2c1-c1ccc(-n2nnc(C(=O)Nc3ccncc3)c2C2CC2)cc1 [Compound 7-18]
> 7.00 | Cc1cc(NC(=O)c2nnn(-c3ccc(-c4cnn(Cc5ccccc5)c4)cc3)c2C2CC2)ccn1 [Compound 7-19]

More lines, now with the values behind:

Compound | pIC50
Cc1ccc(-n2nnc(C(=O)Nc3ccnc(C)c3)c2C2CC2)cc1 [Compound 1-4, 5-cyclopropyl-N-(2-methylpyridin-4-yl)-1-(p-tolyl)-1H-1,2,3-triazole-4-carboxamide] | 6.30 to 7.00
Cc1ccc(-n2nnc(C(=O)Nc3cc(F)nc(F)c3)c2C2CC2)cc1 [Compound 1-5] | 6.00 to 6.30
Cc1ccc(-n2nnc(C(=O)Nc3cc(C)nc(C)c3)c2C2CC2)cc1 [Compound 1-6] | 6.00 to 6.30
Cc1ccc(-n2nnc(C(=O)Nc3ccnc(F)c3)c2C2CC2)cc1 [Compound 1-7] | 6.00 to 6.30
Cc1ccc(-n2nnc(C(=O)Nc3ccncc3F)c2C2CC2)cc1 [Compound 1-9] | 5.52 to 6.00
Cc1ccc(-n2nnc(C(=O)Nc3ccncc3)c2C(C)C)cc1 [Compound 1-19] | 6.00 to 6.30
N#Cc1ccc(-n2nnc(C(=O)Nc3ccncc3)c2C2CC2)cc1 [Compound 2-1] | < 5.52
Cc1ccc(-n2nnc(C(=O)Nc3ccncc3)c2C2CC2)c(F)c1 [Compound 2-2] | 6.00 to 6.30
O=C(Nc1ccncc1)c1nnn(-c2ccc(-c3ccccc3)cc2)c1C1CC1 [Compound 2-3] | 6.00 to 6.30
COc1ccc(-n2nnc(C(=O)Nc3ccncc3)c2C2CC2)cc1 [Compound 2-4, 5-cyclopropyl-1-(4-methoxyphenyl)-N-(pyridin-4-yl)-1H-1,2,3-triazole-4-carboxamide] | 6.00 to 6.30
Cc1ccc(-n2nnc(C(=O)Nc3ccncc3)c2C2CC2)cc1C [Compound 2-5] | 5.52 to 6.00
COc1cc(-n2nnc(C(=O)Nc3ccncc3)c2C2CC2)ccc1C [Compound 2-6] | 5.52 to 6.00
Cc1ccc(-n2nnc(C(=O)Nc3ccncc3)c2C2CC2)c(Cl)c1 [Compound 2-7] | 5.52 to 6.00
Cc1ccc(-n2nnc(C(=O)Nc3ccncc3)c2C2CC2)c(C)c1 [Compound 2-8] | 5.52 to 6.00
CC(=O)c1cccc(-n2nnc(C(=O)Nc3ccncc3)c2C2CC2)c1 [Compound 2-9] | 5.52 to 6.00
CC(=O)c1ccc(-n2nnc(C(=O)Nc3ccncc3)c2C2CC2)cc1 [Compound 2-10] | 5.52 to 6.00
O=C(Nc1ccncc1)c1nnn(-c2ccc(C3CCCC3)cc2)c1C1CC1 [Compound 2-11] | 5.52 to 6.00
Cc1ccc(-n2nnc(C(=O)Nc3ccncc3)c2C2CC2)cc1F [Compound 2-13] | < 5.52
Cc1cccc(-n2nnc(C(=O)Nc3ccncc3)c2C2CC2)c1 [Compound 2-14] | < 5.52
CCc1cccc(-n2nnc(C(=O)Nc3ccncc3)c2C2CC2)c1 [Compound 3-1, 5-cyclopropyl-1-(3-ethylphenyl)-N-(pyridin-4-yl)-1H-1,2,3-triazole-4-carboxamide] | 6.00 to 6.30
CCc1ccc(-n2nnc(C(=O)Nc3ccncc3)c2C2CC2)cc1 [Compound 3-2] | 5.52 to 6.00
CCc1ccccc1-n1nnc(C(=O)Nc2ccncc2)c1C1CC1 [Compound 3-3] | 5.52 to 6.00
COc1cccc(-n2nnc(C(=O)Nc3ccncc3)c2C2CC2)c1 [Compound 3-4] | 5.52 to 6.00
Cc1ccc(-n2nnc(C(=O)Nc3ccncc3)c2C2CCC2)cc1 [Compound 3-5] | 6.00 to 6.30
Cc1ccc(-n2nnc(C(=O)Nc3ccncc3)c2C2CCCC2)cc1 [Compound 3-6] | 5.52 to 6.00

Compound | pIC50
O=C(Nc1ccncc1)c1nnn(-c2cc3ccccc3o2)c1C1CC1 [Compound 4-1] | < 5.52
Cc1ccc(-n2nnc(C(=O)Nc3ccnc(C)c3)c2C2CC2)c(Cl)c1 [Compound 4-2, 1-(2-chloro-4-methylphenyl)-5-cyclopropyl-N-(2-methylpyridin-4-yl)-1H-1,2,3-triazole-4-carboxamide] | 6.30 to 7.00
O=C(Nc1ccncc1)c1nnn(-c2ccccc2C(F)(F)F)c1C1CC1 [Compound 4-3] | 5.52 to 6.00
Cc1ccc(-n2nnc(C(=O)Nc3ccncc3)c2C2CC2)cc1O [Compound 4-4] | 5.52 to 6.00
O=C(Nc1ccncc1)c1nnn(-c2ccc(O)cc2)c1C1CC1 [Compound 4-5] | 5.52 to 6.00
Cc1ccc(-n2nnc(C(=O)Nc3ccncc3)c2C2CC2)c(C(F)(F)F)c1 [Compound 4-6] | 5.52 to 6.00
O=C(Nc1ccncc1)c1nnn(-c2cccc(O)c2)c1C1CC1 [Compound 4-7] | 5.52 to 6.00
O=C(Nc1ccncc1)c1nnn(-c2cc3ccccc3s2)c1C1CC1 [Compound 4-8] | 5.52 to 6.00
O=C(Nc1ccncc1)c1nnn(C2CCc3ccccc3C2)c1C1CC1 (centres unmarked) [Compound 4-9] | 5.52 to 6.00
O=C(Nc1ccncc1)c1nnn(-c2csc3ccccc23)c1C1CC1 [Compound 4-10] | 5.52 to 6.00
O=C(Nc1ccncc1)c1nnn(-c2cccc(-c3ccccc3)c2)c1C1CC1 [Compound 4-11] | 5.52 to 6.00
CC(C)(C)c1c(C(=O)Nc2ccncc2)nnn1-c1ccc(-c2ccccc2)cc1 [Compound 4-12] | 5.52 to 6.00
O=C(Nc1ccncc1)c1nnn(-c2ccc(-c3ccccc3)cc2Cl)c1C1CC1 [Compound 4-13] | 6.00 to 6.30
O=C(Nc1ccncc1)c1nnn(-c2ccc3c(c2)CCC3)c1C1CC1 [Compound 5-1] | < 5.52
O=C(Nc1ccncc1)c1nnn(-c2ncc(-c3ccccc3)s2)c1C1CC1 [Compound 5-2] | < 5.52
O=C(Nc1ccncc1)c1nnn(-c2ccc3ccccc3c2)c1C1CC1 [Compound 5-3] | 6.00 to 6.30
CCc1cc(-n2nnc(C(=O)Nc3ccncc3)c2C2CC2)ccc1C [Compound 5-4, 5-cyclopropyl-1-(3-ethyl-4-methylphenyl)-N-(pyridin-4-yl)-1H-1,2,3-triazole-4-carboxamide] | 6.00 to 6.30
COc1cc(C)ccc1-n1nnc(C(=O)Nc2ccncc2)c1C1CC1 [Compound 5-5] | 6.00 to 6.30
CCc1cc(C)ccc1-n1nnc(C(=O)Nc2ccncc2)c1C1CC1 [Compound 5-6] | 5.52 to 6.00
Cc1ccc(-n2nnc(C(=O)Nc3ccncc3)c2C2CC2)cc1-c1ccccc1 [Compound 5-7] | 5.52 to 6.00
O=C(Nc1ccncc1)c1nnn(C2CCCCC2)c1C1CC1 [Compound 6-1] | 5.52 to 6.00
O=C(Nc1ccncc1)c1nnn(-c2cccc3ccccc23)c1C1CC1 [Compound 6-2, 5-cyclopropyl-1-(naphthalen-1-yl)-N-(pyridin-4-yl)-1H-1,2,3-triazole-4-carboxamide] | 6.30 to 7.00
O=C(Nc1ccncc1)c1nnn(CC(F)(F)F)c1C1CC1 [Compound 6-3] | 6.00 to 6.30
COCCn1nnc(C(=O)Nc2ccncc2)c1C1CC1 [Compound 6-4] | 5.52 to 6.00
O=C(Nc1ccncc1)c1nnn(C2CCCC2)c1C1CC1 [Compound 6-5] | 5.52 to 6.00
